tested on: Zebrafish (Danio rerio) larvae; assay: Behavioral assay in 6-OHDA zebrafish larvae model; assay type: in vivo; settings: larvae 4 dpf, 750 µM 6-OHDA 24 h, then peptide 50 µM for 24 h; filmed 5 min, ToxTrac; 12 embryos per group
Protocol: Wild-type adult D. rerio (zebrafish) were obtained from a licensed commercial distributor. They were maintained on a 14 h light–10 h dark photoperiod in fresh filtered water at 28 °C and fed twice a day with dry food and once a day with Artemia sp. Reproduction was performed in individual fish tanks in a 1 male–1 female proportion, with pebbles and artificial plants. Eggs were collected, selected and maintained in an incubator at 28 °C until 4 days post fertilization (dpf). This study followed the guidelines of the National Council for Animal Experimentation Control (CONCEA) and was approved by the Ethics Commission for Animal Use (CEUA) at the Bioscience Institute of São Paulo State University (São Vicente, Brazil: Protocol Number 06/2023, approved on 22 June 2023).
Zebrafish (Danio rerio) larvae at 4 dpf were transferred to a 96-well plate, a single larva per well. Larvae were treated with 750 µM 6-OHDA in system water for 24 h in an incubator at 28 °C. Then, solution was changed to system water with each peptide in different concentrations—10 µM, 20 µM, 30 µM, 40 µM and 50 µM [47]—and larvae were incubated at 28 °C for another 24 h. Finally, each larva was filmed for 5 min, and videos were processed by an automated tracking system (ToxTrac Version 2.96). Analysis parameters were mean speed (mm/s) and total distance swum (mm) (Figure 8). Statistical analysis was performed using a one-way analysis of variance (ANOVA) test followed by Dunnett’s test for multiple comparisons. Data were statistically analyzed using GraphPad Prism Software (GraphPad Software Inc., San Diego, CA, USA).
Figure 8 Zebrafish larva model. Zebrafish larvae were immersed in 6-OHDA 750 µM for 24 h, then in each peptide at 10 µM, 20 µM, 30 µM, 40 µM or 50 µM for 24 h. Videos were recorded for 5 min and then analyzed by software (ToxTrac Version 2.96). Parameters were mean speed and distance traveled.

Sequence	Mean speed, compared to the control group	Total distance swum, compared to the control group
GVGFATRQV [p-FABP7]	statistically equal results to the control group	statistically equal results to the control group
TIEQEKQAGSS [p-Tbeta4, […], derived from thymosin beta-4]	statistically equal results to the control group	statistically equal results to the control group
TLDLNEMDYIQRGGPE [p-MRPS36, peptide derived from mitochondrial ribosomal protein S36]	statistically equal results to the control group	statistically equal results to the control group

— publication PMC11900122, “Study of Intracellular Peptides of the Central Nervous System of Zebrafish (Danio rerio) in a Parkinson’s Disease Model” (International Journal of Molecular Sciences, 2025)
